Tested on: 922993-354-T-J3-PDC complex spheroid viability
Experiment: Anticancer human tumor 922993-354-T-J3-PDC patient-derived endometrial carcinoma cell line growth inhibition [POLQ]
Settings: for IC50: curve of first compound; for viability, T/C: stronger effect = lower value
Description: Multicellular complex tumor spheroid response to Polymerase (POL) inhibitors (novobiocin, ART-558, RP6685) in combination with a variety of drugs and investigational agents in selected tumor cell lines
The POL inhibitors (novobiocin, ART-558, and RP6685) were evaluated both individually and in combination with standard of care and investigational anticancer small molecules within a complex spheroid model of solid tumors. . Complex spheroids include a stromal component modeled by human endothelial cells (HUVEC) and fibroblasts modeled by human mesenchymal stem cells (MSCs). The concentration ranges selected for each drug and investigational agent were based upon clinically achievable concentrations if the clinical Cmax of the agent was known.
Compounds. The drugs and investigational agents: novobiocin (NSC847541), ART-558 (NSC835418), RP-6685 (NSC848927), peposertib (NSC802822), ceralasertib (NSC780249), elimusertib (NSC800525), camonsertib (NSC841442), AZD-1390 (NSC803789), olaparib (NSC753686), talazoparib (NSC767125), rucaparib (NSC756644), sotorasib (NSC818433), MRTX-1133 (NSC836407), SN-38 (NSC673596), topotecan (NSC609699), epotoside (NSC141540), doxorubicin (NSC123127), gemcitabine (NSC613327), 5-fluorouracil (NSC19893), paclitaxel (NSC125973), vemurafenib (NSC761431), MSA-2 (NSC828583), SN-011 (NSC837082), adavosertib (NSC754352), prexasertib (NSC758257), carboplatin (NSC241240) and oxaliplatin (NSC266046), were obtained from the National Cancer Institute (NCI) Developmental Therapeutics Program Chemical Repository (21). The FDA-approved anticancer drug set is available from the Developmental Therapeutics Program at https://dtp.cancer.gov/organization/dscb/obtaining/. […] The stock solutions were prepared in dimethyl sulfoxide (DMSO, Sigma-Aldrich, St. Louis, MO, cat. D2650), except for the platinum compounds which were prepared in saline (Quality Biological, Gaithersburg, MD, cat. 114-055-101), at 800-fold the tested concentration and stored at -70 degrees C prior to their use. All drugs and investigational agents were tested over a range starting from a high concentration at or near the clinical Cmax and decreasing in half-log increments. If the clinical Cmax for an agent had not been determined, the highest concentration tested was 10 microM, except for SN-38, which was tested at a high concentration of 1 microM.
Cell Culture. All cells were maintained in an incubator at 37 degrees C and 5% CO2 with 95% humidity. The PDC lines were cultured according to standard operating procedures established by the NCI PDMR (https://pdmr.cancer.gov). Table 3 of the manuscript, lists the cell lines along with the number of the three cell types plated to form the mct-spheroids and media for tumor cell growth. After thawing, all PDC lines, except 997537-175-T-J1-PDC and 415267-285-R-J2-PDC, were cultured in Matrigel-coated flasks prepared with a working solution of 1X Ham's F-12 nutrient mix, without supplementation (Thermo Fisher Scientific, cat. 11765054), 100 U/mL penicillin-streptomycin (Thermo Fisher Scientific, cat. 15140122), and 2.5% Matrigel (Corning Inc., Corning, NY, cat. 354248) for the first three passages. The two PDC lines 997537-175-T-J1-PDC and 415267-285-R-J2-PDC were cultured on uncoated flasks. The 857933-349-R-J2-PDC line was cultured in 6C/Colon 1B media containing advanced DMEM/F-12 (Thermo Fisher Scientific, cat. 12634028), 10 mM HEPES (Thermo Fisher Scientific, cat. 15630080), 1X GlutaMAX supplement (Thermo Fisher Scientific, cat. 35050061), 0.1 mg/mL primocin (InvivoGen, San Diego, CA, cat. ant-pm-2), 10% defined fetal bovine serum, heat inactivated (HyClone Laboratories Inc., Logan, UT, cat. SH30070.03HI), 50% L-WRN conditioned media (ATCC, cat. CRL-3276), 1.25 mM N-Acetyl-L-cysteine (Sigma-Aldrich, cat. A9165), 10 mM nicotinamide (Sigma-Aldrich, cat. N0636), 1X B-27 supplement (Thermo Fisher Scientific, cat. 17504044), 1X N-2 supplement (Thermo Fisher Scientific, cat. […]
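Also: spheroids exposed to the agents for one week.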
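For viability, T/C in this document: 100% = DMSO vehicle control wells.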

CC(=O)O[C@H]1C(=O)[C@@]2(C)[C@H]([C@H](OC(=O)c3ccccc3)[C@]3(O)C[C@H](OC(=O)[C@H](O)[C@@H](NC(=O)c4ccccc4)c4ccccc4)C(C)=C1C3(C)C)[C@]1(OC(C)=O)CO[C@@H]1C[C@@H]2O + Nc1ccc(C#CCN(C(=O)Cc2ncc(C(F)(F)F)cc2C(F)(F)F)c2ccc(F)cc2)nn1
IC50 (second compound 0.0316 µM): > 3 µM
IC50 (second compound 0.1 µM): > 3 µM
IC50 (second compound 0.316 µM): > 3 µM
IC50 (second compound 1 µM): > 3 µM
IC50 (second compound 3.16 µM): > 3 µM
IC50 (second compound 10 µM): > 3 µM
viability, T/C (second compound 0.0316 µM, first compound 0.00949 µM): 105%
viability, T/C (second compound 0.0316 µM, first compound 0.03 µM): 107%
viability, T/C (second compound 0.0316 µM, first compound 0.0949 µM): 102%
viability, T/C (second compound 0.0316 µM, first compound 0.3 µM): 105%
viability, T/C (second compound 0.0316 µM, first compound 0.949 µM): 99%
viability, T/C (second compound 0.0316 µM, first compound 3 µM): 73.4%
viability, T/C (second compound 0.1 µM, first compound 0.00949 µM): 105%
viability, T/C (second compound 0.1 µM, first compound 0.03 µM): 106%
viability, T/C (second compound 0.1 µM, first compound 0.0949 µM): 106%
viability, T/C (second compound 0.1 µM, first compound 0.3 µM): 106%
viability, T/C (second compound 0.1 µM, first compound 0.949 µM): 99.9%
viability, T/C (second compound 0.1 µM, first compound 3 µM): 72.4%
viability, T/C (second compound 0.316 µM, first compound 0.00949 µM): 107%
viability, T/C (second compound 0.316 µM, first compound 0.03 µM): 107%
viability, T/C (second compound 0.316 µM, first compound 0.0949 µM): 104%
viability, T/C (second compound 0.316 µM, first compound 0.3 µM): 103%
viability, T/C (second compound 0.316 µM, first compound 0.949 µM): 96.6%
viability, T/C (second compound 0.316 µM, first compound 3 µM): 78.1%
viability, T/C (second compound 1 µM, first compound 0.00949 µM): 107%
viability, T/C (second compound 1 µM, first compound 0.03 µM): 100%
viability, T/C (second compound 1 µM, first compound 0.0949 µM): 104%
viability, T/C (second compound 1 µM, first compound 0.3 µM): 107%
viability, T/C (second compound 1 µM, first compound 0.949 µM): 91.7%
viability, T/C (second compound 1 µM, first compound 3 µM): 71.4%
viability, T/C (second compound 3.16 µM, first compound 0.00949 µM): 101%
viability, T/C (second compound 3.16 µM, first compound 0.03 µM): 105%
viability, T/C (second compound 3.16 µM, first compound 0.0949 µM): 98.3%
viability, T/C (second compound 3.16 µM, first compound 0.3 µM): 101%
viability, T/C (second compound 3.16 µM, first compound 0.949 µM): 83.7%
viability, T/C (second compound 3.16 µM, first compound 3 µM): 69.8%
viability, T/C (second compound 10 µM, first compound 0.00949 µM): 90.6%
viability, T/C (second compound 10 µM, first compound 0.03 µM): 84.3%
viability, T/C (second compound 10 µM, first compound 0.0949 µM): 69.5%
viability, T/C (second compound 10 µM, first compound 0.3 µM): 69.8%
viability, T/C (second compound 10 µM, first compound 0.949 µM): 60.8%
viability, T/C (second compound 10 µM, first compound 3 µM): 54.8%
